{"source": "patent US11939312B2", "about": "“Enantiomeric entactogen compositions and their use” (Arcadia Medicine, Inc., priority 2021, dated 2024)", "key": {"[1]": {"conditions": "rat, p.o., cited from earlier work"}, "[2]": {"conditions": "dog, female and male, p.o.; cited from earlier work"}, "[3]": {"conditions": "cited from earlier work"}, "[4]": {"conditions": "doses of 100-125 mg; cited from earlier work"}, "[5]": {"conditions": "p.o. in rat (single housing for SR(±)MDMA); cited from earlier work"}, "[6]": {"conditions": "cited from earlier work", "remark": "listed apart in the source"}, "[7]": {"assay": "Calculated human equivalent dose (HED) of the NOAEL", "conditions": "for Human Equivalent Dose (HED): NOAEL (human), total dose / Human Equivalent Dose (HED): neurotoxicology NOAEL (human), total dose: assuming a 60 kg human; for NOAEL: human"}, "[8]": {"assay": "Maximum recommended starting dose (MRSD)", "conditions": "expected value"}, "[9]": {"conditions": "repeated administration, 50 mg/kg bw, mice (Curry 2018); cited from earlier work"}, "[10]": {"conditions": "rodent models, doses far above allometrically-scaled clinical doses (Curry 2018); cited from earlier work"}, "[11]": {"assay": "Subjective report of R-MDMA HCL (Example 11)", "conditions": "oral 250 (±) 10 mg", "protocol": "Purpose: To determine the physiological and subjective effects of the hydrochloride salt of R-MDMA (oral administration, 250 (±) 10 mg), supplemented with acetyl-L-carnitine (ALCAR), alpha lipoic acid (ALA), ascorbate to reduce or prevent neurotoxicity."}, "[12]": {"conditions": "brain imaging studies, 100 mg, healthy volunteers"}}, "note": "Like-named read-outs stand apart in the source and are kept apart here."}
{"compound": "CNC(C)Cc1ccc2c(c1)OCO2", "note": "(racemic) [racemic MDMA, 3,4-methylenedioxymethamphetamine]", "values": [{"measurement": "Neurotoxicology NOAEL", "setting": "[1]; female", "result": 25, "unit": "mg/kg/week p.o1"}, {"measurement": "Neurotoxicology NOAEL", "setting": "[1]; male", "result": 20, "unit": "mg/kg/week p.o1."}, {"measurement": "Neurotoxicology NOAEL", "setting": "[2]", "result": 4, "unit": "mg/kg/week p.o"}, {"measurement": "onset of subjective effects", "setting": "[3]; Harris 2002", "result": "approximately 45 mins"}, {"measurement": "time of peak subjective effects", "setting": "[3]; Harris 2002", "result": "1.5 to 2", "unit": "h"}, {"measurement": "time to decrease to baseline values", "setting": "[3]; Harris 2002", "result": "5 to 6", "unit": "h"}, {"measurement": "duration of subjective effects", "setting": "[3]; [12]", "result": "approximately 4.5 hours"}, {"measurement": "time of peak subjective effects", "setting": "[3]; [12]", "result": 1.67, "unit": "h"}, {"measurement": "duration of effects", "setting": "[3]; one dose", "result": "4 to 5", "unit": "h"}, {"measurement": "time of peak drug effects", "setting": "[3]; patients with PTSD (Mithoefer 2013)", "result": "2 to 5", "unit": "h"}, {"measurement": "onset of action", "setting": "[3]; patients with PTSD, after the initial dose (Mithoefer 2013)", "result": "45 to 75", "unit": "min"}, {"measurement": "duration of effects", "setting": "[3]; with the booster dose", "result": "5 to 6", "unit": "h"}, {"measurement": "increase in blood pressure (diastolic)", "setting": "[4]", "result": "14.4-25 mmg"}, {"measurement": "increase in heart rate", "setting": "[4]", "result": "26-30 bpm"}, {"measurement": "No adverse effect level (NOAEL)", "setting": "[5]", "result": "NOAEL: 100 mg/kg"}, {"measurement": "time to peak plasma concentration", "setting": "[6]; doses 100-125 mg, humans", "result": "2 to 3", "unit": "h"}, {"measurement": "elimination half-life", "setting": "[6]; similar for doses 50-125 mg", "result": "7 to 9", "unit": "h"}, {"measurement": "Human Equivalent Dose (HED): NOAEL (human), total dose", "setting": "[7]", "result": 2080, "unit": "mg"}, {"measurement": "Human Equivalent Dose (HED): neurotoxicology NOAEL (human), total dose", "setting": "[7]", "result": 342.9, "unit": "mg*"}, {"measurement": "Human Equivalent Dose (HED): NOAEL (human)", "setting": "[7]; calculated from NOAEL", "result": 34, "unit": "mg/kg →"}, {"measurement": "Human Equivalent Dose (HED): neurotoxicology NOAEL (human)", "setting": "[7]; calculated from neurotoxicology NOAEL", "result": "NOAEL (human): 6 mg/kg"}]}
{"compound": "CN[C@@H](C)Cc1ccc2c(c1)OCO2", "note": "[S(+)MDMA, (S)-1-(1,3-Benzodioxol-5-yl)-N-methylpropan-2-amine]", "values": [{"measurement": "Expected MSRD", "setting": "[8]", "result": 150, "unit": "mg"}, {"measurement": "Human Equivalent Dose (HED): NOAEL (human), total dose", "setting": "[7]", "result": "<2080", "unit": "mg"}, {"measurement": "Human Equivalent Dose (HED): neurotoxicology NOAEL (human), total dose", "setting": "[7]", "result": 342.9, "unit": "mg*"}, {"measurement": "NOAEL", "setting": "[7]", "result": 6, "unit": "mg/kg"}]}
{"compound": "CN[C@H](C)Cc1ccc2c(c1)OCO2", "note": "[R-MDMA, (R)-1-(1,3-Benzodioxol-5-yl)-N-methyl-propan-2-amine]", "values": [{"measurement": "No adverse effect level (NOAEL)", "setting": "[5]", "result": "NOAEL: >200 mg/kg"}, {"measurement": "AUC in comparison to S-MDMA", "setting": "[6]; Fallon 1999, Fitzgerald 1990", "result": "increased AUC"}, {"measurement": "half-life in comparison to S-MDMA", "setting": "[6]; Fallon 1999, Fitzgerald 1990", "result": "longer half-life"}, {"measurement": "evidence of neurotoxicity", "setting": "[9]", "result": "did not show evidence of neurotoxicity"}, {"measurement": "temperature fluctuations", "setting": "[10]", "result": "no significant temperature fluctuations"}, {"measurement": "Expected MSRD", "setting": "[8]", "result": ">300 mg:"}, {"measurement": "hyperthermia or hypothermia", "setting": "[11]", "result": "No noticeable hyperthermia or hypothermia"}, {"measurement": "jaw clenching", "setting": "[11]", "result": "No incidence of jaw clenching"}, {"measurement": "onset of noticeable effects", "setting": "[11]; Subject A", "result": "around 40 minutes"}, {"measurement": "time of peak of the experience", "setting": "[11]; Subject A", "result": "around two hours after ingestion"}, {"measurement": "blood pressure", "setting": "[11]; monitor of low precision, result inconclusive", "result": "increased for a short period"}, {"measurement": "heart rate", "setting": "[11]; short period, from 85 resting", "result": "115-125"}, {"measurement": "Human Equivalent Dose (HED): NOAEL (human), total dose", "setting": "[7]", "result": ">4100", "unit": "mg"}, {"measurement": "Human Equivalent Dose (HED): neurotoxicology NOAEL (human), total dose", "setting": "[7]", "result": 450, "unit": "mg*"}, {"measurement": "NOAEL", "setting": "[7]", "result": 7.4, "unit": "mg/kg"}]}
